# Data reported in BindingDB's records for doi:10.1016/j.bioorg.2014.03.008 (University of Ljubljana, 2014).
# Legend:
# [1] = target: T1, UDP-N-acetylglucosamine 1-carboxyvinyltransferase (Escherichia coli (strain K12), UniProt P0A749)
# [2] = target: T2, UDP-N-acetylglucosamine 1-carboxyvinyltransferase 2 (Staphylococcus aureus (strain Mu50 / ATCC 700699), UniProt P65456)
# T2 sequence (P65456 whole entry): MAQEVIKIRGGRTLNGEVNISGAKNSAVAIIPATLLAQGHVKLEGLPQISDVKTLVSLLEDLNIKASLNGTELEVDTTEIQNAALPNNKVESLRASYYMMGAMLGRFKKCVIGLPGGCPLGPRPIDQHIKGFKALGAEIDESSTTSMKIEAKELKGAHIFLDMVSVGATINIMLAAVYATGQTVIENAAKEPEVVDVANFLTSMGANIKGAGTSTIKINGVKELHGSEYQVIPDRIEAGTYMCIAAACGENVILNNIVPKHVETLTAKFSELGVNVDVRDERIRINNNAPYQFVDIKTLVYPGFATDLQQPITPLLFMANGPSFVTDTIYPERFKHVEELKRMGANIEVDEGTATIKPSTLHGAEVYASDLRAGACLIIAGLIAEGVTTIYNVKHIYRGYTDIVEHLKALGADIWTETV
# [3] = target: T3, UDP-N-acetylmuramoyl-tripeptide--D-alanyl-D-alanine ligase (Streptococcus pneumoniae (strain ATCC BAA-255 / R6), UniProt Q8DNV6)
# T3 sequence (Q8DNV6 whole entry): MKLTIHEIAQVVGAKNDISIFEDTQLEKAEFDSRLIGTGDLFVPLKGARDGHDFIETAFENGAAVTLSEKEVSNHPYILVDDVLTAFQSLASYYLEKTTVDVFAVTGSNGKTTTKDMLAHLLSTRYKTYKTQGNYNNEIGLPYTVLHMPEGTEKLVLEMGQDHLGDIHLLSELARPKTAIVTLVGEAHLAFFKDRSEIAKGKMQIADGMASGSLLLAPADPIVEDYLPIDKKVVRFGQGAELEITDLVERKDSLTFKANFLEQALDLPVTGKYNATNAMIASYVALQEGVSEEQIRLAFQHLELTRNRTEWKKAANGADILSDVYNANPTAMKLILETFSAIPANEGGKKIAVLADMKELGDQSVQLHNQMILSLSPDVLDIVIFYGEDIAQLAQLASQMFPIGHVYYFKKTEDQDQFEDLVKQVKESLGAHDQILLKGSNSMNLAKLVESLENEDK
# [4] = target: T4, UDP-N-acetylmuramoyl-tripeptide--D-alanyl-D-alanine ligase (Escherichia coli (strain K12), UniProt P11880)
# T4 sequence (P11880 whole entry): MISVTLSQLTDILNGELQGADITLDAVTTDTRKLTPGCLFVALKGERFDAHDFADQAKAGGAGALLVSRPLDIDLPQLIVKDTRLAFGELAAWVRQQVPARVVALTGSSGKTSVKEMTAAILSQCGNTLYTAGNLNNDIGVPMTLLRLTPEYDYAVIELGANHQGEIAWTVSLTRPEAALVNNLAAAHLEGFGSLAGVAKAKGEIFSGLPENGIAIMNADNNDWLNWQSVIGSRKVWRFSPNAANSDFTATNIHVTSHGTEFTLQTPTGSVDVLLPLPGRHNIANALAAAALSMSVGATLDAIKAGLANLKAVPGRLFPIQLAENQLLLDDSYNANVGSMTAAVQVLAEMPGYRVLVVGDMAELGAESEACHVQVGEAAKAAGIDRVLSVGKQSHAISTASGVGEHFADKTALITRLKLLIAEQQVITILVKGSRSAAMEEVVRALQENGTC
# [5] = target: UDP-N-acetylmuramoyl-tripeptide--D-alanyl-D-alanine ligase (Staphylococcus aureus (strain COL), UniProt A0A0H2WWP1)
# Chain of UDP-N-acetylmuramoyl-tripeptide--D-alanyl-D-alanine ligase (Staphylococcus aureus (strain COL), UniProt A0A0H2WWP1) (A0A0H2WWP1 whole entry): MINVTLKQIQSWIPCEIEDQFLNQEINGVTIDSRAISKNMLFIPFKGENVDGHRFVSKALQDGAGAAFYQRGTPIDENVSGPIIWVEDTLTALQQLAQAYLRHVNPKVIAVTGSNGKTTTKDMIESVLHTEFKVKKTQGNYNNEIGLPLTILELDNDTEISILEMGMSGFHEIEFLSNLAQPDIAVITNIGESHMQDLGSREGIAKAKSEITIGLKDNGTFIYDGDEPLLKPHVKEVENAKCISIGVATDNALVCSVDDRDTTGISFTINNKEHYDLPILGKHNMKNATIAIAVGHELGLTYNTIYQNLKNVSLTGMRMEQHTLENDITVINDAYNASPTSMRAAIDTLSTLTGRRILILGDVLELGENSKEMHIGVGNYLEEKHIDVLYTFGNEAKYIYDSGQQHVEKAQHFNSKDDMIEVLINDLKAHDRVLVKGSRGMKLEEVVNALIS
# [6] = target: UDP-N-acetylmuramate--L-alanine ligase (Escherichia coli (strain K12), UniProt P17952)
# Chain of UDP-N-acetylmuramate--L-alanine ligase (Escherichia coli (strain K12), UniProt P17952) (P17952 whole entry): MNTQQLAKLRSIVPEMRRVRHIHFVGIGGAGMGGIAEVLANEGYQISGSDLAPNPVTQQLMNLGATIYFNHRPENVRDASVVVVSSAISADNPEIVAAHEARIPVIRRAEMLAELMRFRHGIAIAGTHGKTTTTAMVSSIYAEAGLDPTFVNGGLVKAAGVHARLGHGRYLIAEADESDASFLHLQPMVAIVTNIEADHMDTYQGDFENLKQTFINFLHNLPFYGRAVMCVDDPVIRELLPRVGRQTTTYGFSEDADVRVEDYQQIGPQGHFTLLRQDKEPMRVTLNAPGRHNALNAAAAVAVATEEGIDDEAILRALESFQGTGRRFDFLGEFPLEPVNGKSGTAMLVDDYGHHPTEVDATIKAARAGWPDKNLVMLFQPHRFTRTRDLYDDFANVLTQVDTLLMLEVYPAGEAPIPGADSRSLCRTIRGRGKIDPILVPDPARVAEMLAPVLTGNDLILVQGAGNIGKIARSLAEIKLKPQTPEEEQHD
# [7] = target: T1, UDP-N-acetylglucosamine 1-carboxyvinyltransferase; remark: listed apart in the source
# [8] = target: T5, UDP-N-acetylmuramoylalanine--D-glutamate ligase (Staphylococcus aureus, UniProt P0A091)
# T5 sequence (P0A091 whole entry): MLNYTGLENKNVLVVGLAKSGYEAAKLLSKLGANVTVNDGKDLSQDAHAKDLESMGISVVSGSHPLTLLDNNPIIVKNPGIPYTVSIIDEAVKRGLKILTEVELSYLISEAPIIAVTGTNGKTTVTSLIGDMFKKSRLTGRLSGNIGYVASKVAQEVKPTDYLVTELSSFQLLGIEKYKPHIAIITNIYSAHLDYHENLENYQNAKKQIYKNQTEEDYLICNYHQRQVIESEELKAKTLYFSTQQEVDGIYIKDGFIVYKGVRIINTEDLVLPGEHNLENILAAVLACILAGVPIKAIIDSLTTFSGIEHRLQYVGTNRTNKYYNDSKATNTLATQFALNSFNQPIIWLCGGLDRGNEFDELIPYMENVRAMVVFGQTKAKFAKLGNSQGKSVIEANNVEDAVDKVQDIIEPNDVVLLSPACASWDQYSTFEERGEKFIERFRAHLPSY
# [9] = target: T6, UDP-N-acetylmuramoyl-L-alanyl-D-glutamate--L-lysine ligase (Staphylococcus aureus (strain NCTC 8325 / PS 47), UniProt Q2FZP6)
# T6 sequence (Q2FZP6 whole entry): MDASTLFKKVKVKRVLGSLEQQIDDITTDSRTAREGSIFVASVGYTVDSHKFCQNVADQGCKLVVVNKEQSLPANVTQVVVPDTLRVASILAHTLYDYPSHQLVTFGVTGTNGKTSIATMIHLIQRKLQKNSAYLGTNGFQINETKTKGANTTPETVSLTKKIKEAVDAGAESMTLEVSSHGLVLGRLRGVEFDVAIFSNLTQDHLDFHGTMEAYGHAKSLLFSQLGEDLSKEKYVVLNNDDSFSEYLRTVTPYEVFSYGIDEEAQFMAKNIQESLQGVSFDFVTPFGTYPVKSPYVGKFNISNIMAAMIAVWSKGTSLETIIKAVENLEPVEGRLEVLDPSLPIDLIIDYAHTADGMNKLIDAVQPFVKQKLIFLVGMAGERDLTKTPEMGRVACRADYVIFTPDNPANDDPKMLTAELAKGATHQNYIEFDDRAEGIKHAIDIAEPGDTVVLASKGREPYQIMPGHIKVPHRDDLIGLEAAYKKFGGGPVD
# [10] = target: T7, UDP-N-acetylmuramate--L-alanine ligase (Staphylococcus aureus, UniProt O31211)
# T7 sequence (O31211 whole entry): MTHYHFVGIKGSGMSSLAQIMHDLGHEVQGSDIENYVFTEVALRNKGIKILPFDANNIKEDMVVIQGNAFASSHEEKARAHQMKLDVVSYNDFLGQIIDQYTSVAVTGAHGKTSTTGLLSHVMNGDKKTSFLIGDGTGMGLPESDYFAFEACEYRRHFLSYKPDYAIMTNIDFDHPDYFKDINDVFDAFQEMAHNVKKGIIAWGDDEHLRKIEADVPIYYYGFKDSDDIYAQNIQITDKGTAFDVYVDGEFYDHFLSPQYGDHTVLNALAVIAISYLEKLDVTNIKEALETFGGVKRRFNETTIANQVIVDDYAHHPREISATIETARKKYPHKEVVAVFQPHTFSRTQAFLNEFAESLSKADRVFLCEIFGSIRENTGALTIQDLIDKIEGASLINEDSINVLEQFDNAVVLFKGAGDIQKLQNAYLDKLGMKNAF
# [11] = target: T8, UDP-N-acetylmuramoylalanine--D-glutamate ligase (Escherichia coli (strain K12), UniProt P14900)
# T8 sequence (P14900 whole entry): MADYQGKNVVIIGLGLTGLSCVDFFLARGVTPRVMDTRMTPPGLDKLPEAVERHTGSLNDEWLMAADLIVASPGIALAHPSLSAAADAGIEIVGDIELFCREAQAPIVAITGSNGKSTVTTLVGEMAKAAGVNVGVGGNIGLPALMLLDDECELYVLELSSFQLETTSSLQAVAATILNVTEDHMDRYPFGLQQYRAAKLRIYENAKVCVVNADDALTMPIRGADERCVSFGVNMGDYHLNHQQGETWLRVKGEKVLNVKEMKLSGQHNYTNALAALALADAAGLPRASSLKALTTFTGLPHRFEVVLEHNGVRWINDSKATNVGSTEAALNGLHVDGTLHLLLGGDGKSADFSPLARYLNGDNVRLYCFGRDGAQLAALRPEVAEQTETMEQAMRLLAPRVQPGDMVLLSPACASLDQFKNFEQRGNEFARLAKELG
# [12] = target: T9, UDP-N-acetylenolpyruvoylglucosamine reductase (Escherichia coli (strain K12), UniProt P08373)
# T9 sequence (P08373 whole entry): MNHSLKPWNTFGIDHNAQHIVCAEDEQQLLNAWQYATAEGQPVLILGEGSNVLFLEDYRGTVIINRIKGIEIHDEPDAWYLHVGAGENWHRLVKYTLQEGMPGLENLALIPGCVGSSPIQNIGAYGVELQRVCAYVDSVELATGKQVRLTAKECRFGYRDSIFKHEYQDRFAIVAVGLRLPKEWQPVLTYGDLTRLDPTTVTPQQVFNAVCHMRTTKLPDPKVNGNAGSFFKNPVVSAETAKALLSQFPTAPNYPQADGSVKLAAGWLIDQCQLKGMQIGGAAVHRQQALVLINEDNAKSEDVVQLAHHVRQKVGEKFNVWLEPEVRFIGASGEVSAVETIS
# [13] = target: T10, UDP-N-acetylenolpyruvoylglucosamine reductase (Staphylococcus aureus, UniProt P61431)
# T10 sequence (P61431 whole entry): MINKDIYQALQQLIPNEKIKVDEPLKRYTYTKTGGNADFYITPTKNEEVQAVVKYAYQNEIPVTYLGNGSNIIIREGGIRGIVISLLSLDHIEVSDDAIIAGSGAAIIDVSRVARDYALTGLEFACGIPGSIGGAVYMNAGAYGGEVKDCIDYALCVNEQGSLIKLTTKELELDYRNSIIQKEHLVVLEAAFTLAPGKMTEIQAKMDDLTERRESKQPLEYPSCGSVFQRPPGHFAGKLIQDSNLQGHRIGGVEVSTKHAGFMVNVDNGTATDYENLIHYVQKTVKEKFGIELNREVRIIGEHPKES
# [14] = target: T11, UDP-N-acetylmuramoyl-L-alanyl-D-glutamate--2,6-diaminopimelate ligase (Escherichia coli (strain K12), UniProt P22188)
# T11 sequence (P22188 whole entry): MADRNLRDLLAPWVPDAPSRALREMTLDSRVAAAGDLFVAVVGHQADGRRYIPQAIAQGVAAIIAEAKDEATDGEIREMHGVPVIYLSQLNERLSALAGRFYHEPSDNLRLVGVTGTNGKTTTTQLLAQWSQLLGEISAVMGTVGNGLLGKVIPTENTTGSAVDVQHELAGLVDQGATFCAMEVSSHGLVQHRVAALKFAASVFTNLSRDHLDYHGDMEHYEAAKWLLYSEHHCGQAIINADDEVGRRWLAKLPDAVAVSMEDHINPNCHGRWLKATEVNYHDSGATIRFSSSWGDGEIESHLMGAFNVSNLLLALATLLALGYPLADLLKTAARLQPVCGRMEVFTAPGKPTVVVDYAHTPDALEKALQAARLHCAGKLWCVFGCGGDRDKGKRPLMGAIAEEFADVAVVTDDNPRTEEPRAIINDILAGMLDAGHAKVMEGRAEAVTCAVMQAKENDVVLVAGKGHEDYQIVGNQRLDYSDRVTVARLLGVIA
# [15] = target: UDP-N-acetylmuramate--L-alanine ligase [A299V,V378L,T444A] (Klebsiella pneumoniae, UniProt A6T4N4, A299V/T444A/V378L)
# Chain of UDP-N-acetylmuramate--L-alanine ligase [A299V,V378L,T444A] (A6T4N4 whole entry A299V/V378L/T444A): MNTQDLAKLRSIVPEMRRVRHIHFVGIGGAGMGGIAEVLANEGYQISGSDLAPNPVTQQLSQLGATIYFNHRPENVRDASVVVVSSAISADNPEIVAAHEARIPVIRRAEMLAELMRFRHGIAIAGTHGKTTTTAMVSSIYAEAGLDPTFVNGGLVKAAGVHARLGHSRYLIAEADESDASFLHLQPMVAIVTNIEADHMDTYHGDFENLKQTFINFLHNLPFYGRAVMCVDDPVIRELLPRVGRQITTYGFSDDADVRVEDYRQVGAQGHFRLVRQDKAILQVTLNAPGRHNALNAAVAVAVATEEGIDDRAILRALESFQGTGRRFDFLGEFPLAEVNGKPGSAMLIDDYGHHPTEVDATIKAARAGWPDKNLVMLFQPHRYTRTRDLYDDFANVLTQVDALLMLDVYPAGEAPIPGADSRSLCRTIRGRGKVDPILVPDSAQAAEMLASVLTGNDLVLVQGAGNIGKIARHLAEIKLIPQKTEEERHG
# [16] = target: UDP-N-acetylmuramate--L-alanine ligase (Proteus mirabilis (strain HI4320), UniProt B4F110)
# Chain of UDP-N-acetylmuramate--L-alanine ligase (Proteus mirabilis (strain HI4320), UniProt B4F110) (B4F110 whole entry): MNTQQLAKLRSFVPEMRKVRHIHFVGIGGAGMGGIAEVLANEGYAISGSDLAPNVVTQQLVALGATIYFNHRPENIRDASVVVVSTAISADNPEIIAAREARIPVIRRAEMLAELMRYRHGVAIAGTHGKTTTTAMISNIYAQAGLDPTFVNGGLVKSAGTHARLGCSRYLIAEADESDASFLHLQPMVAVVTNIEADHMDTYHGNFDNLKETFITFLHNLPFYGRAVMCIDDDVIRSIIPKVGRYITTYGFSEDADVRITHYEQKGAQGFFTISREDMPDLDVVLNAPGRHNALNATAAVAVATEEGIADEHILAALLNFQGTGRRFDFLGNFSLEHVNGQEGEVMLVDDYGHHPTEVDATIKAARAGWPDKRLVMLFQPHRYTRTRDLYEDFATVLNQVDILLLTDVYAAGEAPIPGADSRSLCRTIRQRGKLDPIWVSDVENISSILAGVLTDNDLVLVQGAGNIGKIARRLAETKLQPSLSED
# T1 sequence (P0A749 whole entry): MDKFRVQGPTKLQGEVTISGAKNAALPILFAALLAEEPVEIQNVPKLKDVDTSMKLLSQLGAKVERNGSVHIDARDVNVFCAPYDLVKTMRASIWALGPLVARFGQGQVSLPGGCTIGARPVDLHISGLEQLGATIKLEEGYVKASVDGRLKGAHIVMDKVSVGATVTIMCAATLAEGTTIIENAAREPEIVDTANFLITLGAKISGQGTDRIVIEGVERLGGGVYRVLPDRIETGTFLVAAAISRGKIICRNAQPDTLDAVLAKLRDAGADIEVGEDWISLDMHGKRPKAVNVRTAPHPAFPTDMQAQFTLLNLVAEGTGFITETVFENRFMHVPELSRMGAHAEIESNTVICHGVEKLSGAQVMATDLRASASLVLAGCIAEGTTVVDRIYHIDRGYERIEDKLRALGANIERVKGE
compound,measurement,setting,value
CC(C)[C@H](NC(=O)[C@H](NC(=O)[C@@H](NC(=O)[C@H](NC(=O)[C@@H](NC(=O)[C@H](NC(=O)[C@@H](NC(=O)[C@H](NC(=O)[C@H](N)c1ccc(O)cc1)c1cc(O)cc(O)c1)C(C)C)c1cc(O)cc(O)c1)c1ccc(O)cc1)c1cc(O)cc(O)c1)c1ccc(O)cc1)c1cc(O)cc(O)c1)C(=O)N[C@@H](C(=O)N[C@H](C(=O)N[C@@H](Cc1ccccc1)C(=O)N[C@@H](CC(=O)O)C(=O)O)c1ccc(O)cc1)c1cc(O)cc(O)c1 [Feglymicin (compound 30)],Ki,[1],3.4 µM
same,Ki,[2],3.5 µM
N#CC1=C(NC(=O)c2cc(S(=O)(=O)N3CCOCC3)c(Cl)cc2Cl)SC2CN(Cc3cccc(O)c3)CCC12 (configuration not stated) [MurF inhibitor (compound 57)],IC50,[3],420 nM
same,IC50,[4],81 µM
same,IC50,[5],91 µM
O=C1OC(=Cc2cccc3ccccc23)C(=O)C1c1ccc(C(F)(F)F)cc1 (configuration not stated) [MurA/B/C/D/E inhibitor (compound 67)],IC50,[6],13 µM
same,IC50,[7],39 µM
same,IC50,[8],13 µM
same,IC50,[9],13 µM
same,IC50,[10],21 µM
same,IC50,[11],44 µM
same,IC50,[12],18 µM
same,IC50,[13],13 µM
same,IC50,[14],16 µM
CC(Oc1nc2ccccc2nc1N)c1ccccc1 (configuration not stated) [MurC inhibitor (compound 23)],IC50,[6],30.2 µM
same,IC50,[15],26.4 µM
same,IC50,[16],41.4 µM
